From paper PMC3260207, “Site-Directed Mutations and the Polymorphic Variant Ala160Thr in the Human Thromboxane Receptor Uncover a Structural Role for Transmembrane Helix 4” (PLoS ONE, 2012)
Substitutions are numbered along the chain they refer to.

How the values were obtained:
Assay in all cases: Saturation radioligand binding with [3H] SQ 29,548, membranes
Conditions in all cases: picomoles of TP per milligram of total membrane protein, mean ± S.E
[1] = target: T1, TP A160S mutant (Homo sapiens, UniProt P21731, A160S)
T1 construct: expressed in transfected cells; HEK293T (calcium assays)
T1 sequence (P21731 1-343 A160S): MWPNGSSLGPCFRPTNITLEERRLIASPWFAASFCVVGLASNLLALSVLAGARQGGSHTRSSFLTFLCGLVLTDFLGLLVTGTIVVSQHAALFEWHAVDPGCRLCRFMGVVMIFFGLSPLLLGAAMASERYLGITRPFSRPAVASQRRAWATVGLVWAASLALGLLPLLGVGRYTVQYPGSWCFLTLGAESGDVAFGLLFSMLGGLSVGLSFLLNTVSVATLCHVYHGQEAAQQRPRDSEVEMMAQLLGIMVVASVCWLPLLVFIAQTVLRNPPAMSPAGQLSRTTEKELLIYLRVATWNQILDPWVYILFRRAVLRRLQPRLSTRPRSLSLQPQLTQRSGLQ
Description: (§1) Amino acid substitutions were introduced into the synthetic TPα gene carried by the expression vector pMT4 as described previously, [29]. DNA sequences of all the mutated genes were verified by automated DNA sequencing. To minimize variations in transfection efficiency, the total amount transfected DNA was kept constant in all cases at 1 µg of DNA per 7×10^5 cells. The wild type TP or mutant genes were expressed in COS-1 cells using a DEAE-dextran based transient transfection method, [29], and in HEK293T cells using lipofectamine 2000 (Invitrogen). Except unless specified, the membranes prepared from COS-1 cells were used for radioligand binding assays and immunoblots. For intracellular calcium determination assays and immunofluorescence imaging, HEK293T cells were used. For transient transfections of HEK293T cells using the plasmid pMT4, lipofectamine 2000 (Invitrogen) mediated transfection was used as described by the manufacturer. Membranes were prepared using Buffers A and B and as described previously, [29]. The protein concentration in the resuspended membrane pellet was determined using a modified DC protein assay kit from Bio-Rad Laboratories (Hercules, CA).
(§2) These were carried out in Buffer C for 60 min at room temperature, using 2 to 20 µg of membrane protein and different concentrations of [^3H] […] Binding of [^3H] […] Competition binding assays were performed using 4 nM [^3H] […] Binding was terminated by filtering under vacuum on GF/A filters (Millipore). Filter-bound radioactivity was measured using a liquid scintillation counter. Equilibrium dissociation constants (Kd) were determined from saturation isotherms using PRISM software version 5.0 (GraphPad Software Inc, San Diego, CA, USA). The Ki values were calculated from the IC50, using the equation of Cheng and Prusoff by PRISM software version 5.0.

[2] = target: T2, TP A160V mutant (Homo sapiens, UniProt P21731, A160V)
T2 construct: expressed in transfected cells; HEK293T (calcium assays)
T2 sequence (P21731 1-343 A160V): T1 sequence (P21731 1-343 A160S) with S160V
Description: as §1, §2

[3] = target: T3, TP F107A mutant (Homo sapiens, UniProt P21731, F107A)
T3 construct: expressed in transfected cells; HEK293T (calcium assays)
T3 sequence (P21731 1-343 F107A): T1 sequence (P21731 1-343 A160S) with F107A, S160A
Description: as §1, §2

[4] = target: T4, TP F114A mutant (Homo sapiens, UniProt P21731, F114A)
T4 construct: expressed in transfected cells; HEK293T (calcium assays)
T4 sequence (P21731 1-343 F114A): T1 sequence (P21731 1-343 A160S) with F114A, S160A
Description: as §1, §2

[5] = target: T5, TP G164A mutant (Homo sapiens, UniProt P21731, G164A)
T5 construct: expressed in transfected cells; HEK293T (calcium assays)
T5 sequence (P21731 1-343 G164A): T1 sequence (P21731 1-343 A160S) with S160A, G164A
Description: as §1, §2

[6] = target: T6, WT-TP (wild type human thromboxane A2 receptor TPα) (Homo sapiens, UniProt P21731)
T6 construct: expressed in transfected cells; HEK293T (calcium assays)
T6 sequence (P21731 1-343): T1 sequence (P21731 1-343 A160S) with S160A
Description: as §1, §2

- Bmax, binding maximum of the ligand SQ 29,548 for the receptor [1]: 5.8 ± 0.5 pmol/mg
- Bmax, binding maximum of the ligand SQ 29,548 for the receptor [2]: 1.9 ± 0.3 pmol/mg
- Bmax, binding maximum of the ligand SQ 29,548 for the receptor [3]: 1.8 ± 0.2 pmol/mg
- Bmax, binding maximum of the ligand SQ 29,548 for the receptor [4]: 1.6 ± 0.3 pmol/mg
- Bmax, binding maximum of the ligand SQ 29,548 for the receptor [5]: 6.3 ± 0.4 pmol/mg
- Bmax, binding maximum of the ligand SQ 29,548 for the receptor [6]: 3.8 ± 0.3 pmol/mg
SMILES: O=C(O)CCC/C=C\C[C@@H]1[C@H](CNNC(=O)Nc2ccccc2)[C@H]2CC[C@@H]1O2 [SQ 29,548]
